Patent US10244759B2, “Use of forchlorfenuron for promoting plant growth” (KIM-C1 LLC, priority 2013, dated 2019)
Entries after “also recorded” stand apart in the source; their conditions may differ.

Legend:
[1] = tested on: cotton seeds (G. hirsutum, FiberMax 9058); assay: Cotton seed soak, lateral root development (Example 1); type: in vivo, Gossypium hirsutum
Source text: Commercial cotton seeds (G. hirsutum, FiberMax 9058, Bayer CropScience) were submerged in tubs containing forchlorfenuron at concentrations of 0, 25, 50, 100, 250, 500, 1000, 4000 and 8000 ppm for 10 seconds. The seeds were then placed on paper towels on the lab bench and allowed to air dry. Six days after the seed soak, the seeds were planted in “conetainers” and placed in a greenhouse for one week. The soil was removed from the conetainer and the roots were washed by gently dipping the soil into a bucket of water. Roots were photographed and evaluated for lateral root development.

[2] = cited from earlier work
Winter wheat [3] = assay: Wheat root dry weight after spray (Example 5); type: in vivo; conditions: dry weight 50 days after planting, untreated 0.85
Description: (§1) Plants were sprayed with 0, 2.5, 5, or 7.5 ppm forchlorfenuron, at the cotyledon growth stage in the case of broccoli or at stage 1 in the case of wheat (treatment A), and optionally again with 5 ppm forchlorfenuron three days thereafter (treatment B). The dry weights of the plant roots were measured 50 days after planting.

[4] = tested on: Broccoli plants (B. oleracea, var. Waltham 29); assay: Broccoli root length, stem length and ratio thereof (Example 4); type: in vivo, Brassica oleracea; conditions: for Root Length AB Spray / Root/Stem Ratio AB Spray / Shoot Length AB Spray / Root Length A Spray / Root/Shoot Ratio A Spray / Shoot Length A Spray: percentage of the untreated level, 60 days after planting
Description: Broccoli plants (B. oleracea, var. […] The root length and stem length were measured 60 days after planting and the ratio of root length to stem length was calculated for every plant.

Broccoli = Broccoli root dry weight after spray (Example 5); type: in vivo; conditions: for root weight, Broccoli (AB spray) / root weight, Broccoli (A spray): dry weight 50 days after planting, untreated 0.69
Description: as §1

Winter wheat [5] = assay: Winter wheat seed treatment, root weight (Table 3); type: in vivo; conditions: untreated 0.91
[6] = tested on: cotton (G. hirsutum, FiberMax 9058); assay: Cotton seedling spray, lateral root development and phytotoxicity (Example 2); type: in vivo, Gossypium hirsutum; conditions: seedlings sprayed 6 days after planting
Description: Commercial cotton seed (G. hirsutum, FiberMax 9058, Bayer CropScience) was planted in conetainers and grown for 6 days prior to spraying with a range of forchlorfenuron concentrations. The plants were grown an additional 5 days prior to washing out the roots. Initial concentrations (0, 5, 10, 15, 20, 25, 50, 100, 250, 500, 1000, and 2000 ppm) were evaluated.

[7] = tested on: Cotton plants (G. hirsutum, FiberMax 9180 B2F); assay: Cotton yield enhancement under abiotic and biotic stresses, boll count (Example 3); type: in vivo, Gossypium hirsutum; conditions: for number bolls: at harvest; for % increase over control: number bolls
Description: Cotton plants grown from commercial cotton seeds (G. hirsutum, FiberMax 9180 […], Bayer CropScience) were treated with forchlorfenuron at various stages of growth. […] Control plants were not treated at any stage of growth. At the time of harvest, cotton bolls on all plants were counted, and the percentages of bolls that were open and closed were calculated.

[8] = pH range; cited from earlier work
[9] = treating G. hirsutum seeds or plants
[10] = 2.5 ppm ai at cotyledon stage + 5 ppm 3 days after
[11] = 5 ppm ai at cotyledon stage + 5 ppm 3 days after
[12] = 7.5 ppm ai at cotyledon stage + 5 ppm 3 days after
[13] = 1st square spray, 5 ppm, Day 41

O=C(Nc1ccccc1)Nc1ccnc(Cl)c1 [forchlorfenuron, 1-(2-chloropyridin-4-yl)-3-phenylurea]
rooting patterns / lateral root lengths ([1]; seed treatment 250 ppm vs 0 ppm, eight plants per treatment (FIG. 1)): clear differences in rooting patterns; also recorded: increases in the lateral root lengths | concentration of optimal lateral root production ([1]; seeds submerged 10 seconds, 0-8000 ppm tested): 250 ppm | effect on lateral root development [1, 9]: increased lateral root development | solubility in water [2]: weakly soluble in water; also recorded: poorly soluble in water | root weight, Winter wheat (AB spray) (Winter wheat [3]; 2.5 ppm ai at stage 1 + 5 ppm 3 days after): 0.76 grams | root weight, Winter wheat (A spray) (Winter wheat [3]; 2.5 ppm ai at stage 1): 0.91 grams | root weight, Winter wheat (AB spray) (Winter wheat [3]; 5 ppm ai at stage 1 + 5 ppm 3 days after): 0.71 grams | root weight, Winter wheat (A spray) (Winter wheat [3]; 5 ppm ai at stage 1): 0.69 grams | root weight, Winter wheat (AB spray) (Winter wheat [3]; 7.5 ppm ai at stage 1 + 5 ppm 3 days after): 0.87 grams | root weight, Winter wheat (A spray) (Winter wheat [3]; 7.5 ppm ai at stage 1): 0.72 grams | Root Length AB Spray [4, 10]: 104.39% | Root/Stem Ratio AB Spray [4, 10]: 138.67% | Shoot Length AB Spray [4, 10]: 79.98% | Root Length A Spray ([4]; 2.5 ppm ai at cotyledon stage): 91.86% | Root/Shoot Ratio A Spray ([4]; 2.5 ppm ai at cotyledon stage): 94.53% | Shoot Length A Spray ([4]; 2.5 ppm ai at cotyledon stage): 95.25% | Root Length AB Spray [4, 11]: 97.39% | Root/Stem Ratio AB Spray [4, 11]: 124.29% | Shoot Length AB Spray [4, 11]: 90.62% | Root Length A Spray ([4]; 5 ppm ai at cotyledon stage): 100.6% | Root/Shoot Ratio A Spray ([4]; 5 ppm ai at cotyledon stage): 137.48% | Shoot Length A Spray ([4]; 5 ppm ai at cotyledon stage): 80.12% | Root Length AB Spray [4, 12]: 106.69% | Root/Stem Ratio AB Spray [4, 12]: 119.08% | Shoot Length AB Spray [4, 12]: 90.13% | Root Length A Spray ([4]; 7.5 ppm ai at cotyledon stage): 97.46% | Root/Shoot Ratio A Spray ([4]; 7.5 ppm ai at cotyledon stage): 105.16% | Shoot Length A Spray ([4]; 7.5 ppm ai at cotyledon stage): 91.78% | increase in the ratio of root length to stem length above the untreated level ([4]; Treatment A alone at 5 ppm): > 20% | effect on ratio of root length to stem length ([4]; moderate concentrations): increases the ratio of root length to stem length | increase in the ratio of root length to stem length above the untreated level ([4]; treatment A at 2.5 ppm together with treatment B): > 20% | increase in the ratio of root length to stem length above the untreated level ([4]; treatment A at 5 ppm together with treatment B): > 20% | root weight, Broccoli (AB spray) (Broccoli; [10]): 0.67 grams | root weight, Broccoli (A spray) (Broccoli; 2.5 ppm ai at cotyledon stage): 0.68 grams | root weight, Broccoli (AB spray) (Broccoli; [11]): 0.79 grams | root weight, Broccoli (A spray) (Broccoli; 5 ppm ai at cotyledon stage): 0.8 grams | root weight, Broccoli (AB spray) (Broccoli; [12]): 0.79 grams | root weight, Broccoli (A spray) (Broccoli; 7.5 ppm ai at cotyledon stage): 0.76 grams | increase in root weight above the untreated level (Broccoli; treatment A at 5 ppm, absence of treatment B): > 10% | increase in root weight above the untreated level (Broccoli; treatment A at 5 ppm, presence of treatment B): > 10% | increase in root weight above the untreated level (Broccoli; treatment A at 7.5 ppm, absence of treatment B): > 10% | increase in root weight above the untreated level (Broccoli; treatment A at 7.5 ppm, presence of treatment B): > 10% | root weight, Winter Wheat Seed Treat. (Winter wheat [5]; 2.5 ppm ai): 0.97 grams | root weight, Winter Wheat Seed Treat. (Winter wheat [5]; 5 ppm ai): 0.81 grams | root weight, Winter Wheat Seed Treat. (Winter wheat [5]; 7.5 ppm ai): 0.86 grams | concentration with highest lateral root development ([6]; roots washed out 5 days later): 5 ppm | Severe phytotoxicity, application concentration ([6]; 0-2000 ppm tested): above 50 ppm | % closed bolls [7, 13]: 56.7% | % open bolls [7, 13]: 43.3% | number bolls [7, 13]: 1096 | % closed bolls ([7]; Seed soak, 250 ppm on Day 1): 66.9% | % open bolls ([7]; Seed soak, 250 ppm on Day 1): 33.1% | number bolls ([7]; Seed soak, 250 ppm on Day 1): 1212 | number bolls ([7]; Seedling spray, 5 ppm at cotyledon-first leaf stage, Day 21): 1202 | % closed bolls ([7]; Seedling spray, 5 ppm, Day 21): 70.5% | % open bolls ([7]; Seedling spray, 5 ppm, Day 21): 29.5% | % increase over control [7, 13]: 1% | % increase over control ([7]; Seed soak, 250 ppm on Day 1): 12% | % increase over control ([7]; Seedling spray, 5 ppm, Day 21): 11% | effect on number of healthy cotton bolls per plant [7, 9]: increased the number of healthy cotton bolls per plant | stability [8]: stable across a wide pH range
